This is an account of results in US20250360132A1, “METHODS OF ADMINISTERING MYOSIN INHIBITORS” (MYOKARDIA, INC., priority 2022, published 2025).

The data set addresses BCRP (Homo sapiens, UniProt Q9UNQ0). In words: In vitro transporter inhibition. The class given is in vitro ADME.

BCRP, sequence (Q9UNQ0 whole entry): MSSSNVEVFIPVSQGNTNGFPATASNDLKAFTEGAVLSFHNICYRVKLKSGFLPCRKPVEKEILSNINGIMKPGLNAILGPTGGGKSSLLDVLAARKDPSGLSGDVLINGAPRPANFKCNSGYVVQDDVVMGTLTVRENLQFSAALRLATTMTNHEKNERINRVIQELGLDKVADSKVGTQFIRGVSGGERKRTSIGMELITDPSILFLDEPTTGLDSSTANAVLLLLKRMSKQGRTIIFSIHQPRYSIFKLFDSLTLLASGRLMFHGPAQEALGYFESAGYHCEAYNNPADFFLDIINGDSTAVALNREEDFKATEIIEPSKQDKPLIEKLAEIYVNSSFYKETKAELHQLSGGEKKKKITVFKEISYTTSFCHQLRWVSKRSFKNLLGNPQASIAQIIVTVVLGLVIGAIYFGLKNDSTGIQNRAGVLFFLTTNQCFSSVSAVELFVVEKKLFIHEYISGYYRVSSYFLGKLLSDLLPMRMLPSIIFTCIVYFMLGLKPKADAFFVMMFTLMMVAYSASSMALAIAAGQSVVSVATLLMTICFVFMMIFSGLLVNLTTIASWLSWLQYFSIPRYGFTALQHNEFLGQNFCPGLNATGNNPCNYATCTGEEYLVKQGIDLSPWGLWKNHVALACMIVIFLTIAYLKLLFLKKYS

Take `CC(C)n1c(=O)cc(N[C@@H](C)c2ccccc2)[nH]c1=O` [mavacamten, (S)-3-Isopropyl-6-((1-phenylethyl)amino)pyrimidine-2,4(1H,3H)-dione]: the “Inhibition of BCRP” value was “does not inhibit”.
